Experimental data: patent US10919941B2, “Functional lipid constructs” (KODE BIOTECH LIMITED, priority 2007, dated 2021)
No end group written: not given here.

How the values were obtained:
CSL monoclonal anti-A = assay: BioVue serology of RBCs modified with Atri-lipid constructs against anti-A; type: cell-based; parameters: key: 0 or ‘−’ no agglutination; 0 or ‘−’ no agglutination; 1+ or 3=very weak agglutination; 1+ or 3=very weak agglutination; 2+ or 5=weak agglutination; 2+ or 5=weak agglutination; 3+ or 8=moderate strong agglutination; 3+ or 8=moderate strong agglutination; 4+ or 10/12=strong agglutination; 4+ or 10/12=strong agglutination; 4+ or 10/12=strong agglutination
Experimental: To test the hypothesis solutions of four different trisaccharide (Atri)-lipid constructs were prepared as 50 μM, 10 μM and 5 μM solutions in Celpresol™. Modified red blood cells were then prepared by contacting 0.6 mls (pcv) of washed RBCs with 0.6 mls of the relevant solution. The mixtures were incubated at 37° C. for 2 hours and then washed 3 times to provide a modified cell suspension.
The modified cell suspensions were prepared in 0.8% in Celpresol LISS™ suitable for BioVue serology cards. A volume of 0.05 mls of CSL monoclonal anti-A (026129801) followed by 0.05 mls of modified cell suspension was applied to each card. Reactions were recorded following centrifugation in a BioVue cassette centrifuge (Table 29).
There was no significant gain with CMG(2) compared with CMG(4). There was a minor, but not significant change for MCMG (2).

[1] = tested on: sera reactive with modified RBCs; assay: Neutralisation of reactive sera with free peptide, retested against modified RBCs (BioVue); type: cell-based, human; parameters: key: 0 or ‘−’ no agglutination; 0 or ‘−’ no agglutination; 1+ or 3=very weak agglutination; 1+ or 3=very weak agglutination; 2+ or 5=weak agglutination; 2+ or 5=weak agglutination; 3+ or 8=moderate strong agglutination; 3+ or 8=moderate strong agglutination; 4+ or 10/12=strong agglutination; 4+ or 10/12=strong agglutination; 4+ or 10/12=strong agglutination
Excerpt: Optionally, where F is a peptide, the method includes the preliminary step of: • Adding an amount of the peptide to the sample of the serum; where the amount of the peptide is sufficient to neutralize non-specific agglutination or confirm specificity of the reactive antibody.

[2] = tested on: Miltenberger Antibody Positive Panel; assay: Reactivity of modified RBCs against the Miltenberger Antibody Positive Panel; type: cell-based, human; parameters: key to score vs panel 15 TAP2 / score vs panel 4 T7202 / score vs panel 8 T5896 / score vs panel 2 T217 / score vs panel 3 T165 / score vs panel 14 TAP1 / score vs panel 10 Mia / score vs panel 11 Mur / score vs panel 12 Gam / score vs panel 6 T6025 / score vs panel 7 T8445 / score vs panel 9 MIII / score vs panel 13 BoxH / reactivity with Panel Serum #7 (T8445) / agglutination score, Panel Serum #7 (T8445): 0 or ‘−’ no agglutination; 0 or ‘−’ no agglutination; 1+ or 3=very weak agglutination; 1+ or 3=very weak agglutination; 2+ or 5=weak agglutination; 2+ or 5=weak agglutination; 3+ or 8=moderate strong agglutination; 3+ or 8=moderate strong agglutination; 4+ or 10/12=strong agglutination; 4+ or 10/12=strong agglutination; 4+ or 10/12=strong agglutination
Experimental: (§1) Red blood cells are modified by mixing 1 part by volume of washed packed red blood cells with 1 part by volume of peptide-lipid construct dispersed at a concentration of 10 to 1000 pg/ml in cell media (Celpresol™).
(§2) The suspensions are either: • 1. incubated for 2 hours at 37° C. before being washed and suspended in a cell medium for serological analysis at a concentration of 0.8 to 3% (Method 1); or • 2. incubated for 3 to 4 hours at room temperature (circa 25° C.) followed by 18 hours at 4° C. before being washed and suspended in a cell medium for serological analysis at a concentration of 0.8 to 3% (Method 2).
(§3) Serological reactions are graded or scored by either of two established systems (0 or ‘−’ no agglutination, 1+ or 3=very weak agglutination, 2+ or 5=weak agglutination, 3+ or 8=moderate strong agglutination, 4+ or 10/12=strong agglutination)
(§4) Serological platforms used are Tube (addition of reagents and reactants into plastic or glass serology tubes and after appropriate incubations, washing and centrifugation observing reactions macroscopically by eye and a 10× magnification eyepiece and scoring) and BioVue™ (addition of reactants into cassettes containing beads (including some reactants) and after appropriate incubations and centrifugation observing the reaction patterns trapped within the Gel matrix). BioVue is the serological column agglutination platform of Ortho-Clinical Diagnostics. Diamed is the serological column agglutination platform of Diamed AG.

antibody negative serums = assay: False positive reactions of modified RBCs with antibody negative serums/plasma; type: cell-based, human; parameters: key to Reaction score BioVue AHG, PAC samples 1-46, 49, 50, 52, 53 / Reaction score BioVue AHG, PAC sample 47 / Reaction score BioVue AHG, PAC sample 48 / Reaction score BioVue AHG, PAC sample 51 / agglutination score, T series serum 2 / agglutination score, T series serum 42 / agglutination score, T series serum 63 / agglutination score, T series serum 62 / agglutination score, T series serum 7 / agglutination score, T series serum 20 / agglutination score, T series serum 48 / agglutination score, T series serum 22 / agglutination score, T series serum 39 / agglutination score, T series serum 23 / agglutination score, T series serum 30 / agglutination score, T series serum 4 / agglutination score, T series serum 31 / agglutination score, T series serum 44 / agglutination score, T series serum 61 / agglutination score, T series serum 18 / agglutination score, T series serum 21 / agglutination score, T series serum 28 / agglutination score, T series serum 55 / agglutination score, false positive serum T18 / agglutination score, false positive serum T21 / agglutination score, false positive serum T28 / agglutination score, false positive serum T55 / agglutination score, false positive serum T78 / agglutination score, false positive serum T92: 0 or ‘−’ no agglutination; 0 or ‘−’ no agglutination; 1+ or 3=very weak agglutination; 1+ or 3=very weak agglutination; 2+ or 5=weak agglutination; 2+ or 5=weak agglutination; 3+ or 8=moderate strong agglutination; 3+ or 8=moderate strong agglutination; 4+ or 10/12=strong agglutination; 4+ or 10/12=strong agglutination; 4+ or 10/12=strong agglutination; settings: BioVue AHG cards
[3] = tested on: Miltenberger antibody positive sera; assay: BioVue AHG card column agglutination serology of modified red blood cells; type: cell-based, human; parameters: key: 0 or ‘−’ no agglutination; 0 or ‘−’ no agglutination; 1+ or 3=very weak agglutination; 1+ or 3=very weak agglutination; 2+ or 5=weak agglutination; 2+ or 5=weak agglutination; 3+ or 8=moderate strong agglutination; 3+ or 8=moderate strong agglutination; 4+ or 10/12=strong agglutination; 4+ or 10/12=strong agglutination; 4+ or 10/12=strong agglutination; settings: construct 100 μg/ml
Experimental: as §1, §2, §3, §4

[4] = cells modified at 500 μg/ml (Method 1), BioVue cards
[5] = serum neutralised with peptide SSQTNDKHKRDTY (10 μL of 1 mg/ml to 50 μL, 30 minutes 37° C.), BioVue cards
[6] = cells modified at 50 μg/ml, 2 hour 37° C.
[7] = cells modified with the peptide-lipid construct M28, AHG test in BioVue

Adipate
Serological result, anti-A Neat (CSL monoclonal anti-A; construct 5 μM): 8
Serological result, reciprocal of dilution of anti-A 2 (CSL monoclonal anti-A; construct 5 μM): 8
Serological result, reciprocal of dilution of anti-A 4 (CSL monoclonal anti-A; construct 5 μM): 5
Serological result, reciprocal of dilution of anti-A 8 (CSL monoclonal anti-A; construct 5 μM): 3
Serological result, anti-A Neat (CSL monoclonal anti-A; construct 10 μM): 10
Serological result, reciprocal of dilution of anti-A 2 (CSL monoclonal anti-A; construct 10 μM): 10
Serological result, reciprocal of dilution of anti-A 4 (CSL monoclonal anti-A; construct 10 μM): 10
Serological result, reciprocal of dilution of anti-A 8 (CSL monoclonal anti-A; construct 10 μM): 8
Serological result, reciprocal of dilution of anti-A 16 (CSL monoclonal anti-A; construct 10 μM): 8
Serological result, reciprocal of dilution of anti-A 32 (CSL monoclonal anti-A; construct 10 μM): 8
Serological result, reciprocal of dilution of anti-A 64 (CSL monoclonal anti-A; construct 10 μM): 8
Serological result, reciprocal of dilution of anti-A 128 (CSL monoclonal anti-A; construct 10 μM): 3
Serological result, anti-A Neat (CSL monoclonal anti-A; construct 50 μM): 12
Serological result, reciprocal of dilution of anti-A 2 (CSL monoclonal anti-A; construct 50 μM): 12
Serological result, reciprocal of dilution of anti-A 4 (CSL monoclonal anti-A; construct 50 μM): 12
Serological result, reciprocal of dilution of anti-A 8 (CSL monoclonal anti-A; construct 50 μM): 12
Serological result, reciprocal of dilution of anti-A 16 (CSL monoclonal anti-A; construct 50 μM): 12
Serological result, reciprocal of dilution of anti-A 32 (CSL monoclonal anti-A; construct 50 μM): 12
Serological result, reciprocal of dilution of anti-A 64 (CSL monoclonal anti-A; construct 50 μM): 10
Serological result, reciprocal of dilution of anti-A 128 (CSL monoclonal anti-A; construct 50 μM): 8
Serological result, reciprocal of dilution of anti-A 256 (CSL monoclonal anti-A; construct 50 μM): 8
Serological result, reciprocal of dilution of anti-A 512 (CSL monoclonal anti-A; construct 50 μM): 3

M13: DOPE peptide-lipid construct: MUTK peptide SSQTNDKHKRDTY, leader c (Cys), spacer PEG6 (SSQTNDKHKRDTYC; also: DOPE peptide-lipid construct via leader Cys, spacer PEG6)
agglutination score, serum #3, serum alone [1, 4]: 8
agglutination score, serum #34, serum alone [1, 4]: 8
agglutination score, serum #37, serum alone [1, 4]: 8
agglutination score, serum #42, serum alone [1, 4]: 8
agglutination score, serum #3, serum + peptide [1, 5]: 0
agglutination score, serum #34, serum + peptide [1, 5]: 0
agglutination score, serum #37, serum + peptide [1, 5]: 0
agglutination score, serum #42, serum + peptide [1, 5]: 0
score vs panel 2 T217 ([2]; Table 8, construct 250 μg/ml): 8
score vs panel 3 T165 ([2]; Table 8, construct 250 μg/ml): 0
score vs panel 4 T7202 ([2]; Table 8, construct 250 μg/ml): 8
score vs panel 6 T6025 ([2]; Table 8, construct 250 μg/ml): 8
score vs panel 7 T8445 ([2]; Table 8, construct 250 μg/ml): 0
score vs panel 8 T5896 ([2]; Table 8, construct 250 μg/ml): 3
score vs panel 9 MIII ([2]; Table 8, construct 250 μg/ml): 0
score vs panel 10 Mia ([2]; Table 8, construct 250 μg/ml): 0
score vs panel 11 Mur ([2]; Table 8, construct 250 μg/ml): 0
score vs panel 12 Gam ([2]; Table 8, construct 250 μg/ml): 0
score vs panel 13 BoxH ([2]; Table 8, construct 250 μg/ml): 8

M28: DOPE peptide-lipid construct: Mur peptide TYPAHTANE, leader c, spacer CMG(2) (TYPAHTANEC; also: DOPE peptide-lipid construct via leader Cys, spacer CMG(2))
% positive (antibody negative serums; T series reactives (n = 58)): 9%
agglutination score, T series serum 2 (antibody negative serums; [6]): 10
agglutination score, T series serum 4 (antibody negative serums; [6]): 8
agglutination score, T series serum 7 (antibody negative serums; [6]): 0
agglutination score, T series serum 18 (antibody negative serums; [6]): 0
agglutination score, T series serum 20 (antibody negative serums; [6]): 0
agglutination score, T series serum 21 (antibody negative serums; [6]): 0
agglutination score, T series serum 22 (antibody negative serums; [6]): 0
agglutination score, T series serum 23 (antibody negative serums; [6]): 0
agglutination score, T series serum 28 (antibody negative serums; [6]): 0
agglutination score, T series serum 30 (antibody negative serums; [6]): 0
agglutination score, T series serum 31 (antibody negative serums; [6]): 8
agglutination score, T series serum 39 (antibody negative serums; [6]): 0
agglutination score, T series serum 42 (antibody negative serums; [6]): 0
agglutination score, T series serum 44 (antibody negative serums; [6]): 10
agglutination score, T series serum 48 (antibody negative serums; [6]): 0
agglutination score, T series serum 55 (antibody negative serums; [6]): 0
agglutination score, T series serum 61 (antibody negative serums; [6]): 10
agglutination score, T series serum 62 (antibody negative serums; [6]): 0
agglutination score, T series serum 63 (antibody negative serums; [6]): 0
Pre-neutralisation serology, PAC70 [1, 7]: 8
Pre-neutralisation serology, PAC71 [1, 7]: 5
Pre-neutralisation serology, PAC72 [1, 7]: 5
Pre-neutralisation serology, TAP2 [1, 7]: 8
score vs panel 2 T217 ([2]; Table 9, construct 50 μg/ml): 0
score vs panel 4 T7202 ([2]; Table 9, construct 50 μg/ml): 10
score vs panel 7 T8445 ([2]; Table 9, construct 50 μg/ml): 8
score vs panel 8 T5896 ([2]; Table 9, construct 50 μg/ml): 0
score vs panel 15 TAP2 ([2]; Table 9, construct 50 μg/ml): 8
agglutination score, Panel Serum #7 (T8445) ([2]; cells modified at 50 μg/ml, 2 hour 37° C., BioVue AHG cards): 8
reactivity with Panel Serum #7 (T8445) ([2]; construct 50 μg/ml (2 hours, 37° C.)): 8
TAP 2 Serum BioVue AHG score [3]: 10
